Here are results for 22 molecules from PubChem BioAssay (NCI).

Some test systems named below: LOX IMVI melanoma; OVCAR-5 ovarian; SF-295 CNS; COLO 205 colon; A498 renal; ACHN renal; SN12C renal; HOP-62 NSCLC; SK-MEL-2 melanoma; SK-OV-3 ovarian.
Holding throughout (experiment): inhibition of tumour cell growth, NCI panel, 48 h

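All cell lines were grown in 96-well plates and treated with compound for 48 hours. GI50: concentration for 50% inhibition of growth. TGI marks complete inhibition of growth.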 Where only a bound is given, the exact number is not on record here.

As to `CC1=C(C(=O)Nc2ccccc2C)C(c2ccccc2C)C(C(=O)Nc2ccccc2C)=C(C)N1`, the TGI with LOX IMVI melanoma is 30.3 µM; in the assay on OVCAR-5 ovarian, 66.3 µM; in the assay on SF-295 CNS, 44.2 µM; in the assay with COLO 205 colon it was 62.5 µM; with A498 renal, more than 100 µM; in the assay on ACHN renal it was 29.5 µM. The figures for the TGI in the assay on SN12C renal, with HOP-62 NSCLC and in the assay with SK-MEL-2 melanoma were 35.8 µM, 62.8 µM and 38.8 µM, respectively.
In the case of `COc1ccc(C=C2C(=O)NC(=O)NC2=O)cc1OCc1ccccc1`, the GI50 with LOX IMVI melanoma is 52.5 µg/mL; with SF-295 CNS it was 32.5 µg/mL; with ACHN renal, 36.9 µg/mL; in the assay on SN12C renal, 47.6 µg/mL; with HOP-62 NSCLC it was 36.9 µg/mL; with SK-MEL-2 melanoma, 25.6 µg/mL. In addition, in the assay with SK-MEL-2 melanoma, the TGI worked out at 79.4 µg/mL.
Take `O=c1[nH]c2c(c3ccccc13)CCc1ccccc1-2`: the TGI in the assay with OVCAR-5 ovarian, in the assay with SF-295 CNS, in the assay with COLO 205 colon, in the assay on SK-OV-3 ovarian, with ACHN renal and with SN12C renal was more than 100 µM each time. The molecule further yielded a TGI with SK-MEL-2 melanoma of more than 100 µM.
Turning to `Cc1ccc(Nc2nc(C)c(C(/C=C/c3ccc4c(c3)OCO4)=N/Nc3ccc([N+](=O)[O-])cc3[N+](=O)[O-])s2)c([N+](=O)[O-])c1`, the TGI in the assay on LOX IMVI melanoma, with OVCAR-5 ovarian, with SF-295 CNS, in the assay on COLO 205 colon, with SK-OV-3 ovarian and in the assay with ACHN renal was more than 100 µM throughout. Also, the TGI with SN12C renal, in the assay with HOP-62 NSCLC and in the assay on SK-MEL-2 melanoma was more than 100 µM each time.
For the molecule `Cc1ccccc1NC(=O)c1cc2ccccc2cc1O`, the GI50 in the assay with LOX IMVI melanoma is 3.26 µM; in the assay with OVCAR-5 ovarian, 5.88 µM; in the assay on SF-295 CNS, 3.03 µM; in the assay with COLO 205 colon, 13.8 µM; in the assay on SK-OV-3 ovarian it was 2.64 µM; in the assay on ACHN renal, 3.17 µM. In addition, the GI50 is 2.62 µM in the assay with SN12C renal, 2.47 µM in the assay on HOP-62 NSCLC and 3.33 µM in the assay with SK-MEL-2 melanoma. In addition, the TGI is more than 100 µM in the assay with LOX IMVI melanoma; 85.6 µM in the assay on OVCAR-5 ovarian; 24.2 µM in the assay on SF-295 CNS; 28.6 µM with COLO 205 colon; 14.6 µM in the assay with SK-OV-3 ovarian; 10.4 µM in the assay with ACHN renal. Moreover, the TGI was found to be 9.18 µM with SN12C renal, 7.88 µM in the assay on HOP-62 NSCLC and 8.05 µM in the assay on SK-MEL-2 melanoma.
As to `CC1CC(=O)c2c(ccc3c2C(=O)c2cccc(O)c2C3=O)C1` (configuration not stated), the TGI in the assay on LOX IMVI melanoma amounted to 16 µM; in the assay on OVCAR-5 ovarian, 36.1 µM; in the assay on SF-295 CNS, 23.2 µM; in the assay with COLO 205 colon it was 25.2 µM; in the assay with SK-OV-3 ovarian it was 57.2 µM; with A498 renal, 27.5 µM. Moreover, the TGI with SK-MEL-2 melanoma was determined as 22.6 µM.
With `Cc1cccc(N=C2NC(=O)C(CC(=O)Nc3ccccc3Cl)S2)c1` (configuration not stated), the TGI in the assay with LOX IMVI melanoma, with OVCAR-5 ovarian, in the assay with SF-295 CNS, with A498 renal, with ACHN renal and in the assay on SN12C renal was more than 100 µM each time. Besides, the TGI in the assay with SK-MEL-2 melanoma is more than 100 µM.
As for `NC(=O)N/N=C(\CCC(=O)N(Cc1ccccc1)Cc1ccccc1)CC(=O)c1ccc(F)cc1`, the TGI in the assay on LOX IMVI melanoma, with OVCAR-5 ovarian, with SF-295 CNS, in the assay on COLO 205 colon, with SK-OV-3 ovarian and with ACHN renal was more than 100 µM each time. Besides, the TGI with SN12C renal, in the assay on HOP-62 NSCLC and in the assay with SK-MEL-2 melanoma was more than 100 µM in each case.
For `COc1cc(-c2oc3c(OC)c(O)cc(O)c3c(=O)c2OC)ccc1O`, the TGI in the assay on LOX IMVI melanoma was more than 55.8 µM; in the assay with OVCAR-5 ovarian it was 78.7 µM; in the assay with SF-295 CNS, 76.2 µM; with COLO 205 colon, more than 100 µM; in the assay on SK-OV-3 ovarian, 9.15 µM; in the assay on A498 renal it was 17.2 µM. Further, the results for the TGI with ACHN renal, in the assay on SN12C renal and with SK-MEL-2 melanoma were more than 71.5 µM, more than 100 µM and 15.3 µM, respectively.
For `NNC(=S)N/N=C(/C(=O)Nc1ccc([N+](=O)[O-])cc1)c1nc2ccc([N+](=O)[O-])cc2[nH]c1=O`, the TGI in the assay with LOX IMVI melanoma, with OVCAR-5 ovarian, in the assay with SF-295 CNS, with COLO 205 colon, in the assay with SK-OV-3 ovarian and in the assay on A498 renal was more than 100 µM throughout. Besides, the TGI with ACHN renal, with SN12C renal and in the assay with SK-MEL-2 melanoma was more than 100 µM each time.
`COc1cc2c(Cc3cc(OCc4ccccc4)ccc3N)nccc2c(OC)c1OC`: the TGI in the assay on LOX IMVI melanoma, in the assay on OVCAR-5 ovarian, in the assay on SF-295 CNS, in the assay with COLO 205 colon, with SK-OV-3 ovarian and in the assay with ACHN renal was more than 10 µM each time. In addition, the TGI in the assay with SN12C renal, with HOP-62 NSCLC and in the assay with SK-MEL-2 melanoma was more than 10 µM each time.
Regarding `COC(=O)c1nc(N)nc(C(=O)OC)c1C(=O)c1ccccc1`, the TGI with LOX IMVI melanoma, with OVCAR-5 ovarian, in the assay with SF-295 CNS, in the assay on SK-OV-3 ovarian, in the assay on A498 renal and with ACHN renal was more than 100 µM each time. The TGI with SN12C renal and in the assay on SK-MEL-2 melanoma was more than 100 µM each time.
As to `COC(=O)C1=C(c2ccc(Cl)cc2)C(O)N=C(NN)N1` (configuration not stated), the TGI with LOX IMVI melanoma, in the assay with OVCAR-5 ovarian, in the assay with SF-295 CNS, in the assay with SK-OV-3 ovarian, with ACHN renal and in the assay with SN12C renal was more than 100 µM throughout. For the same molecule, the TGI in the assay on HOP-62 NSCLC and in the assay on SK-MEL-2 melanoma was more than 100 µM in each case.
With `N#CC(C(=O)CCC(=O)Nc1ccc(Cl)c(Cl)c1)c1ccc(Cl)cc1` (configuration not stated), the TGI in the assay on LOX IMVI melanoma, with OVCAR-5 ovarian, with SF-295 CNS, in the assay on A498 renal, with ACHN renal and in the assay with SN12C renal was more than 100 µM throughout. In addition, the TGI in the assay with HOP-62 NSCLC and in the assay on SK-MEL-2 melanoma was more than 100 µM in each case.
As to `OC1c2ccccc2C2C(O)c3ccccc3C12` (configuration not stated), the TGI in the assay with LOX IMVI melanoma, with OVCAR-5 ovarian, in the assay on SF-295 CNS, in the assay on COLO 205 colon, in the assay with SK-OV-3 ovarian and with ACHN renal was more than 100 µM each time. Also, the TGI in the assay with SN12C renal, in the assay with HOP-62 NSCLC and in the assay on SK-MEL-2 melanoma was more than 100 µM each time.
Take `CC(=O)O/N=C/c1cc2c(cc1Br)OCO2`: the TGI in the assay with LOX IMVI melanoma, in the assay on OVCAR-5 ovarian, in the assay on SF-295 CNS, in the assay on COLO 205 colon, in the assay with SK-OV-3 ovarian and in the assay on ACHN renal was more than 349 µM each time. For the same molecule, the TGI in the assay on SN12C renal, in the assay with HOP-62 NSCLC and in the assay with SK-MEL-2 melanoma was more than 349 µM in each case.
With `CCSC(=O)C1(C)OC2CCCCC2C1=O` (configuration not stated), the TGI in the assay on COLO 205 colon, with SK-OV-3 ovarian, in the assay on A498 renal, in the assay with ACHN renal, in the assay on SN12C renal and with HOP-62 NSCLC was more than 100 µM each time. Also, in the assay on SK-MEL-2 melanoma, the TGI is more than 100 µM.
Take `O=c1cc(-c2ccc(O)cc2)oc2cc(O)cc(O)c12`: the TGI with LOX IMVI melanoma is 86.6 µM; in the assay with OVCAR-5 ovarian it was 68 µM; with SF-295 CNS, 83.4 µM; in the assay with COLO 205 colon, more than 100 µM; with SK-OV-3 ovarian, 89.8 µM; in the assay on ACHN renal, 30.3 µM. Besides, the TGI was more than 100 µM with SN12C renal, more than 100 µM in the assay on HOP-62 NSCLC and 80.3 µM in the assay on SK-MEL-2 melanoma.
Consider `Oc1ccc(O)c2c1C1(Cl)C(Cl)=C(Cl)C2(Cl)C1(Cl)Cl`, for which the GI50 with LOX IMVI melanoma was 3.18 µM; in the assay with OVCAR-5 ovarian, 12.6 µM; in the assay with SF-295 CNS it was 1.67 µM; with COLO 205 colon, 11.6 µM; in the assay on SK-OV-3 ovarian, 7.41 µM; in the assay with A498 renal, 1.83 µM. The figures for the GI50 in the assay on ACHN renal, with SN12C renal and with HOP-62 NSCLC were 4.43 µM, 5.29 µM and 8.27 µM, respectively. Also, the TGI in the assay with LOX IMVI melanoma amounted to 13.4 µM; in the assay on OVCAR-5 ovarian, 33.8 µM; in the assay with SF-295 CNS, 7.2 µM; with COLO 205 colon it was 25.4 µM; in the assay on SK-OV-3 ovarian, 20.4 µM; in the assay with A498 renal it was 6.23 µM. Besides, the TGI in the assay with ACHN renal stood at 21.3 µM; in the assay with SN12C renal, 22.7 µM; in the assay on HOP-62 NSCLC, 21.2 µM.
With `COC1(Cc2ccccc2)C(=O)c2ccccc2N1C(C)=O` (configuration not stated), the TGI with SF-295 CNS, in the assay with COLO 205 colon, with SK-OV-3 ovarian, in the assay with A498 renal, in the assay on ACHN renal and in the assay with SN12C renal was more than 100 µM each time. Also, the TGI in the assay with HOP-62 NSCLC and in the assay with SK-MEL-2 melanoma was more than 100 µM throughout.
On to `CCCCCCCCCCCCCCCCCc1nnc(N)o1`, for which the TGI in the assay on LOX IMVI melanoma, in the assay with OVCAR-5 ovarian, with SF-295 CNS, in the assay on COLO 205 colon, in the assay with SK-OV-3 ovarian and with ACHN renal was more than 100 µM in each case. In addition, the TGI with SN12C renal, in the assay with HOP-62 NSCLC and in the assay with SK-MEL-2 melanoma was more than 100 µM each time.
For the molecule `CCOC(=O)c1cn(CC)c2cc3c(cc2c1=O)SCS3`, the TGI in the assay on LOX IMVI melanoma, in the assay on OVCAR-5 ovarian, in the assay with SF-295 CNS, with COLO 205 colon, in the assay on SK-OV-3 ovarian and in the assay with ACHN renal was more than 100 µM throughout. Further, the TGI in the assay on SN12C renal, in the assay on HOP-62 NSCLC and in the assay with SK-MEL-2 melanoma was more than 100 µM throughout.
